As usually defined, the inhibition is the change of the read-out against control, counted positive when it falls.

Molecules are shown by their SMILES.

The experiment has as its target T1, Human 11βHSD1 (Homo sapiens, UniProt P28845).
T1 construct: the enzyme source, native hepatic enzyme compared to recombinant enzyme; tissue XenoTech H0610/Lot 0210078; host or cells: human hepatic microsomes
The experiment is described as follows: 11β HSD1 cortisol radioimmunoassay (RIA) with human hepatic microsomes. It is filed as biochemical. To be noted: read-out: % inhibition of Human 11βHSD1 @ 10 μM. As for the experimental part:
Biological Assay Development Using Human 11β-Hydroxysteroid Dehydrogenase Type 1. Standard Operating Procedure for the 11β-Hydroxysteroid Dehydrogenase Type 1 Cortisol Radioimmunoassay. 11β HSD1 Cortisol RIA
Enzyme assay buffer: 30 mM Tris-HCL, pH 7.2 containing 1 mM EDTA
Antibody binding buffer: 50 mM Tris-HCL, pH 8, containing 0.1 M NaCl and 0.1% gelatin
Dilute into assay buffer 1 in 25. Also dilute neat DMSO 1 in 25 into assay buffer for controls.
Dilute this 1 in 50 into assay buffer.
Prepare NADPH as a 1.8 mg/ml solution in assay buffer.
Mix these 3 solutions 1:1:1 to make a solution of sufficient volume for 25 μl additions to each sample. Add 0.5 μCi tritiated cortisone per 25 μl and mix the solution well.
Microsome preparation: Dilute stock 20 mg/ml solution 1 in 100 with assay buffer.
Dextran coated charcoal preparation: Make a 20 mg/ml solution in antibody binding buffer and chill on ice.
Enzyme assay: To a u-bottom polypropylene 96 well plate add:
25 μl compound dilution or diluted DMSO to controls, NSB's and blanks
10 μl 1 mM GA in DMSO (enzyme stop solution) to blanks
25 μl substrate mixture to all samples
50 μl diluted microsomes to all samples
Incubate plate for 30 min at 37° C. shaking
Add 10 μl enzyme stop solution to all wells except the blanks
Add 100 μl antibody solution to all wells except the NSB's, add antibody binding buffer to these wells
Incubate at 37° C. for 1 h
Chill plate on ice for 15 min
Add 50 μl/well charcoal solution and mix with an 8-channel pipette (4-5 aspirations)
Centrifuge at 4° C., 2000×g for 15 min
Transfer 100 μl supernatant into an Optiplate, also add 25 μl substrate mixture to 2 empty wells to indicate counting efficiency
Add 200 μl Microscint-40 to all wells and count on a Topcount
The 11β HSD1 enzyme assay was carried out following the standard operating procedure described above in u-bottom polypropylene 96 well plates or 1.5 ml Eppendorf tubes as indicated for each experiment. Subsequent to stopping the enzyme reaction, 100 μl antibody prepared in buffer 3 unless otherwise indicated was added to test samples and 100 μl buffer 3 was added to the NSB samples. The samples were incubated for 1 hour at 37° C. and the chilled on ice for 15 mins. Dextran coated charcoal (50 μl/sample) prepared to the indicated concentration in buffer 3 was added and the samples were mixed (vortex for tubes and aspiration 5 times with an 8-channel pipette for 96 well plates) and chilled for a further 10 min. The samples were centrifuged at 2000×g for 15 min at 4° C. to pellet the charcoal. Aliquots of the supernatant (100 μl) were transferred to an Optiplate and counted on the Topcount in 150-200 μl Microscint 40. In some experiments, aliquots of supernatant were transferred to scintillation vials and counted on the Tricarb LSC in 5 ml Ultima Gold scintillant.
Substrate saturation was examined. The enzyme assay was carried out exactly described in the methods section, in Buffer 3 with 10 μg/well microsomal protein and with [cold cortisone] as indicated. [3H]-cortisone was 0.5 μCi/sample throughout. The reaction was stopped after 30 min by the addition of 10 μl stop solution. The RIA was carried out exactly as indicated in the methods section.
It is reported that DMSO can both increase and reduce microsomal enzyme activity, depending on the concentration, presumably due to effects on the microsomal membranes.

T1 sequence (P28845 whole entry): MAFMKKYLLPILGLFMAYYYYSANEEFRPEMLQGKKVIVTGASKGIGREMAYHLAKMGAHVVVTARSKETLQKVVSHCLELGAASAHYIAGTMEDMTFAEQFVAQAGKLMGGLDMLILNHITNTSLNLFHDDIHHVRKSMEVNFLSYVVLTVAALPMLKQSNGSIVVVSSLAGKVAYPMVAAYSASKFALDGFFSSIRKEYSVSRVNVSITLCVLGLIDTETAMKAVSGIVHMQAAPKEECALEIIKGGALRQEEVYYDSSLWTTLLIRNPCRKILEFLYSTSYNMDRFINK

Consider `Cc1c(Cl)cccc1S(=O)(=O)N(C)c1ccc2c(c1)sc(=O)n2C` [compound 831], for which the inhibition at 10 µM was determined as 28%.

Regarding `Cc1c(Cl)cccc1S(=O)(=O)Nc1ccc2nc(C)n(C)c2c1` [compound 975], the inhibition at 10 µM amounted to 45%.

Regarding `Cc1c(Cl)cccc1S(=O)(=O)Nc1ccc2c(c1)nc(C)n2C` [compound 976], the inhibition at 10 µM was 110%.

Regarding `CCOC(=O)Cn1c(C)nc2ccc(NS(=O)(=O)c3cccc(Cl)c3C)cc21` [compound 977], the inhibition at 10 µM was 61%.

Consider `CCOC(=O)Cn1c(C)nc2cc(NS(=O)(=O)c3cccc(Cl)c3C)ccc21` [compound 978], for which the inhibition at 10 µM is 60%.

Regarding `Cc1c(Cl)cccc1S(=O)(=O)Nc1ccc2[nH]ccc2c1` [compound 981], the inhibition at 10 µM stood at 40%.

On to `Cc1c(Cl)cccc1S(=O)(=O)Nc1ccc2cc[nH]c2c1` [compound 982], for which the inhibition at 10 µM amounted to 53%.

Turning to `CC(=O)N1CCc2cc(NS(=O)(=O)c3cccc(Cl)c3C)ccc21` [compound 984], the inhibition at 10 µM worked out at 73%.

In the case of `Cc1nc2cc(NS(=O)(=O)c3cccc(Cl)c3C)ccc2[nH]1` [compound 985], the inhibition at 10 µM stood at 61%.

As to `CCOC(=O)c1cc2cc(NS(=O)(=O)c3cccc(Cl)c3C)ccc2[nH]1` [compound 986], the inhibition at 10 µM came out at 65%.

Consider `CCN1CCc2cc(NS(=O)(=O)c3cccc(Cl)c3C)ccc21` [compound 987], for which the inhibition at 10 µM stood at 62%.

For `COc1ccc2nc(C)sc2c1NS(=O)(=O)c1cccc(Cl)c1C` [compound 989], the inhibition at 10 µM stood at 45%.

For the compound `Cc1nc2c(Cl)c(N(S(=O)(=O)c3cccc(Cl)c3C)S(=O)(=O)c3cccc(C)c3Cl)ccc2s1` [compound 991], the inhibition at 10 µM was determined as 51%.

As for `Cc1nc2c(Cl)c(NS(=O)(=O)c3cccc(Cl)c3C)ccc2s1` [compound 992], the inhibition at 10 µM turned out to be 61%.

As for `CCCc1ccc(S(=O)(=O)Nc2ccc3sc(C)nc3c2Cl)cc1` [compound 994], the inhibition at 10 µM is 83%.

For the compound `CCCc1ccc(S(=O)(=O)N(c2ccc3sc(C)nc3c2Cl)S(=O)(=O)c2ccc(CCC)cc2)cc1` [compound 995], the inhibition at 10 µM was determined as 68%.

As to `Cc1nc2c(NS(=O)(=O)c3cccc(Cl)c3C)c(C)ccc2s1` [compound 996], the inhibition at 10 µM came out at 63%.

Turning to `Cc1nc2cc(C)c(N(S(=O)(=O)c3cccc(Cl)c3C)S(=O)(=O)c3cccc(Cl)c3C)cc2s1` [compound 997], the inhibition at 10 µM was determined as 51%.

`Cc1nc2cc(C)c(NS(=O)(=O)c3cccc(Cl)c3C)cc2s1` [compound 998]: the inhibition at 10 µM came out at 58%.

In the case of `Cc1nc2cc(C)c(NS(=O)(=O)c3cc(Cl)ccc3Cl)cc2s1` [compound 999], the inhibition at 10 µM stood at 55%.

Regarding `Cc1nc2c(Cl)c(NS(=O)(=O)c3cccc(Cl)c3C)c(Cl)cc2s1` [compound 1017], the inhibition at 10 µM was determined as 60%.

On to `Cc1[nH]c2ccc(NS(=O)(=O)c3cccc(Cl)c3C)cc2c1C` [compound 1018], for which the inhibition at 10 µM turned out to be 66%.

As to `Cc1[nH]c2ccc(NS(=O)(=O)c3cc(Cl)ccc3Cl)cc2c1C` [compound 1019], the inhibition at 10 µM was found to be 61%.

With `CCCc1ccc(S(=O)(=O)Nc2ccc3[nH]c(C)c(C)c3c2)cc1` [compound 1020], the inhibition at 10 µM stood at 64%.

`Cc1nc2ccc(C)c(NS(=O)(=O)c3cccc(Cl)c3C)c2s1` [compound 1021]: the inhibition at 10 µM is 54%.

Take `Cc1nc2cc(CNS(=O)(=O)c3cccc(Cl)c3C)ccc2s1` [compound 1029]: the inhibition at 10 µM was determined as 78%.

`Cc1nc2cc(CN(Cc3ccc4sc(C)nc4c3)S(=O)(=O)c3cccc(Cl)c3C)ccc2s1` [compound 1030]: the inhibition at 10 µM was found to be 61%.

The values are drawn from patent US7786152B2, “Compound” (priority 2002, dated 2010).
